Laboratory results taken from patent US20070275982A1, “METHOD” (ASTRAZENECA AB, priority 2006, published 2007).
Where two headings read alike, the source gives them in different places.

System: M. tuberculosis
Assay: MIC of drugs alone and in combination (synergy test)
Format: cell-based, Mycobacterium tuberculosis
Conditions: for change of MIC when tested together: combination Ethambutol + Isoniazid (negative control, FIG. 2); for MIC: Mycobacterium tuberculosis, drug tested alone, read-out: individual MIC
Description: A sulfonylurea ALS inhibitor and a triazolopyrimidine ALS inhibitor were tested alone and in combination with Rifampicin. The positive controls used were Isoniazid and Streptomycin where one finds a synergistic action. The individual MICs of Isoniazid (INH) and Streptomycin (Strep) are 0.03 and 1.0 μg/ml respectively. When used in combination, these values drop to 0.0075 and 0.12 μg/ml respectively (cf. FIG. 1). This is 4 fold and 8 fold less.
The negative control used was a combination of Ethambutol (Etham) and Isoniazid (Inh) where there is no synergistic activity. […] In. Clinical Microbiology Procedures Handbook; Vol. 1-2 by Isenberg, Henry. D. Ed Washington D.C.; American Society for Microbiology/1992; Pages 5.18.1 to 5.18.28).

[1] = combination Isoniazid + Streptomycin
[2] = combination Isoniazid + Streptomycin (positive control, FIG. 1)

SMILES | change of MIC when tested together | MIC | fold drop of MIC in combination vs individual MIC [1] | MIC when used in combination [2] | MIC (Rifampicin/TP experiment (FIG. 4)) | fold drop of MIC in combination vs individual MIC (combination Rifampicin + SU) | fold drop of MIC in combination vs individual MIC (combination Rifampicin + TP) | MIC when used in combination (combination Rifampicin + sulphonylurea compound (SU), FIG. 3) | MIC when used in combination (combination Rifampicin + triazolopyrimidine compound (TP), FIG. 4)
CC[C@@H](CO)NCCN[C@@H](CC)CO [Ethambutol] | do not drop significantly | – | – | – | – | – | – | – | –
[H]/N=C(/N)N[C@H]1[C@H](O)[C@@H](O)[C@H](O[C@@H]2O[C@@H](C)[C@](O)(C=O)[C@H]2O[C@@H]2O[C@@H](CO)[C@H](O)[C@@H](O)[C@@H]2NC)[C@@H](N/C(N)=N\[H])[C@@H]1O [Streptomycin] | – | 1 µg/mL | 8 fold | 0.12 µg/mL | – | – | – | – | –
CO[C@H]1/C=C/O[C@@]2(C)Oc3c(C)c(O)c4c(O)c(c(/C=N/N5CCN(C)CC5)c(O)c4c3C2=O)NC(=O)/C(C)=C\C=C\[C@H](C)[C@H](O)[C@@H](C)[C@@H](O)[C@@H](C)[C@H](OC(C)=O)[C@@H]1C [Rifampicin] | – | 0.03 µg/mL | – | – | 0.015 µg/mL | 8 fold | 4 fold | 0.0038 µg/mL | 0.0038 µg/mL
NNC(=O)c1ccncc1 [Isoniazid] | do not drop significantly | 0.03 µg/mL | 4 fold | 0.0075 µg/mL | – | – | – | – | –
